The text below walks through data of PMC10731632, “Is Smaller Better? Cu^2+/Cu^+ Coordination Chemistry and Copper-64 Radiochemical Investigation of a 1,4,7-Triazacyclononane-Based Sulfur-Rich Chelator” (Inorganic Chemistry, 2023).

On the set-up of series [1]: method as in PMID 35807404. Particulars: after 24 h; cited from earlier work.
Series [2] can be described thus: Acidity constants (pKa) of the free ligands by pH-potentiometric titration. It is filed as physicochemical. Particulars: T = 25 °C, I = 0.15 M NaNO3. As for the experimental part:
(§1) Subsequently, the acid–base properties of NO3S and TACN-n-Bu were appraised. This study is a prior fundamental step before the investigation of complexation equilibria, since the proton represents a competitor of the metal ion for the interaction with the donor sites having Brønsted and Lewis acid–base properties, such as the amines of the TACN scaffold. […] The ionic strength (I) was adjusted using 0.15 M NaNO3. […] Therefore, additional pKa measurements were performed in a 1:1 water/methanol mixture, where no precipitation was detected. The acidity constants of TACN-n-Bu were derived upon analysis of the pH-potentiometric titrations data and pH-dependent ^1H NMR spectra in water (Figure S9B). The acidity constant values of both ligands are gathered in Table 1 along with the values of the unsubstituted macrocycle (i.e., TACN) and the methyl-functionalized one (i.e., 1,4,7-trimethyl-1,4,7-triazacyclonane, TACN-Me) derived from the literature.[30]
Potentiometric titrations were conducted using an automated titrating system (Metrohm 765 Dosimat) equipped with a combined glass electrode (Hamilton pH 0–14) and a Metrohm 713 pH meter at T = 25 °C under a N2 atmosphere. NaNO3 (0.15 M) was used to fix the ionic strength. Stock solutions of NO3S and TACN-n-Bu were freshly prepared by dissolution of the synthesized compounds (∼10^–3 M). To avoid carbonatation phenomena and facilitate the dissolution, prestandardized HNO3 (CH^+ = 4CL) was coadded to each ligand solution. The solubility of the ligands in water depends on pH: minimal values occur at pH > 12, where the noncharged, totally deprotonated form predominates. All of the titrations were conducted as previously described.[22]−[25] […] Each titration was performed independently, at least in quintuplicate.
(§2) The thermodynamic data were elaborated with the least-squares fitting program PITMAP as described in our previous works.[22]−[25] […]

Series [3] can be described thus: Solubility in water observed during pKa measurements. The series is classed as physicochemical. Particulars: basic pH, precipitate observed. The procedure: as §1
Potentiometric titrations were conducted using an automated titrating system (Metrohm 765 Dosimat) equipped with a combined glass electrode (Hamilton pH 0–14) and a Metrohm 713 pH meter at T = 25 °C under a N2 atmosphere. NaNO3 (0.15 M) was used to fix the ionic strength. Stock solutions of NO3S and TACN-n-Bu were freshly prepared by dissolution of the synthesized compounds (∼10^–3 M). […]

Series [4] in a line: Stability constants of Cu2+ complexes by UV-vis spectrophotometric batch titrations; pCu2+ calculation. Particulars: for pCu^2+ (−log[Cu^2+]free): calculated at CL = 1 × 10^-5 M, CCu2+ = 1 × 10^-6 M, pH 7.4 from stability constants. It is filed as physicochemical. As for the experimental part: The stability constants (logβ) of the Cu^2+ complexes formed by NO3S and TACN-n-Bu were determined via UV–vis spectrophotometric titrations. Due to both the slow complexation kinetics observed at acidic pH (vide supra) and the high complex stability, batch titrations were conducted and heating was applied to speed up reaching the equilibrium condition.
The stability of the Cu^2+ complexes with TACN-n-Bu was assessed as well to investigate the role of the sulfanyl pendants in metal coordination. The UV–vis spectra recorded at different pH values are shown in Figure 3B, and the variation of the absorbance at λ = 295 nm is reported in Figure S16B. The pCu^2+ values were then computed (Figure 5): being defined as −log[Cu^2+]free, the higher the pCu^2+ value, the greater the stability of the considered metal–ligand complex.[23]−[25]
UV–vis pH-spectrophotometric titrations were carried out as previously reported by means of the out-of-cell method at T = 25 °C and I = 0.15 M NaNO3.[24],[25] Briefly, stock solutions of NO3S or TACN-n-Bu were mixed with Cu(NO3)2 in independent vials at a 1:1 metal-to-ligand ratio (CCu^2+ = CL = 1.0 × 10^–4 M). The pH was adjusted as described in the NMR experiments. The vials were sealed and heated to T = 60 °C in a thermostatic bath to ensure complete complexation and then cooled to ambient temperature. The absorption spectra were recorded, and equilibrium was considered to be reached when no variations in either the pH or the electronic spectra were detected over time.
The thermodynamic data were elaborated with the least-squares fitting program PITMAP as described in our previous works.[22]−[25] All equilibrium constants refer to the overall equilibrium pM^m+ + qH^+ + rL^l– ⇌ MpHqLr^pm+q–rl, where M = Cu^2+ and L = NO3S or TACN-n-Bu, respectively, and are defined as cumulative formation constants (logβpqr = [MpLqHr]/[M]^p[L]^q[H]^r).

Series [5] in a line: Formation kinetics of Cu2+ complexes by UV-vis spectroscopy (time to reach equilibrium). The following applies: ambient temperature. It is filed as physicochemical. As for the experimental part: The formation kinetics of the Cu^2+ complexes with NO3S and TACN-n-Bu was qualitatively appraised by UV–vis spectroscopy at ambient temperature and different pH values to explore the time necessary to reach equilibrium. The spectrum of NO3S and TACN-n-Bu as free ligands is also reported for comparison purposes in Figure S15.
The formation kinetics of Cu^2+ complexes with NO3S and TACN-n-Bu was evaluated at different pH values at room temperature using UV–vis spectroscopy as previously reported.[24],[25] Briefly, equimolar amounts of Cu^2+ and the proper ligands were mixed, and the corresponding UV–vis spectra were recorded over time. The final concentrations were CCu^2+ = CL = 1.0 × 10^–4 M. The pH was controlled using the following buffers: HCl 10^–2 M (pH = 2), acetic acid/acetate (pH = 4), and 2-[4-(2-hydroxyethyl)piperazin-1-yl]ethanesulfonic acid (HEPES) (pH = 7.1).

Series [6] is described as follows: Cyclic voltammetry of the copper complex of NO3S (Cu2+/Cu+ couple); Cu+ stability constant and pCu+. The series is classed as physicochemical. The procedure:
To assess the ability of NO3S to stably bind Cu^+, cyclic voltammetry (CV) analysis was executed. The investigation was performed in aqueous solution at pH ranging from 3 to 12. The obtained cyclic voltammograms, reported in Figure 7, show a peak couple attributable to the quasi-reversible one-electron reduction–oxidation process of the Cu^2+/Cu^+ redox pair (Table S9). No variation of the voltammetric behavior after multiple reduction–oxidation cycles was observed either with time or with the scan rate (except for the increase in the current intensity, i). This outcome is extremely significant because it proves the ability of NO3S to stabilize both copper oxidation states throughout the investigated pH range on the time scale of the CV experiments.
As illustrated in Figure 7 and Table S9, a pH-dependent variation of the cyclic voltammograms was found. […]
Bulk electrolysis of the preformed Cu^2+-NO3S complexes was carried out in a two-compartment cell. […] The electrolysis was performed at a fixed potential equal to E = −0.35 V and monitored by linear scan voltammetry on a rotating disk electrode. […] No variations of the ^1H NMR spectra were detected after 2 days (tubes were stored under a normal atmosphere). […]

A short description of series [7]: Acidity constants (pKa) of the free ligands by pH-dependent 1H NMR. It is filed as physicochemical. Particulars: water, T = 25 °C. The procedure: as §1
However, the chemical shift of all of the other signals manifests a noticeable pH dependence. The most pronounced variation is experienced by the NCH2 protons of the ring, possibly because the deprotonation processes led to a marked relaxation of the ring constraint caused by the H^+−H^+ repulsions. An analogous pH dependency of the chemical shifts is observed for TACN-n-Bu, even if in this case a slowed exchange between the differently protonated forms can be recognized from the enlargement of the signals around pH = pKa,2. The data were fitted, and the corresponding protonation constants (Table 1) were obtained.
Small additions (∼μL) of HNO3 and/or NaOH were used to adjust the pH. The latter was measured as for the potentiometric measurements. Under highly acidic conditions, the pH was computed from the HNO3 concentration (pH = −logCH^+). An excitation sculpting pulse scheme was used to suppress the water signal.[32]
as §2

Details of series [8]: method as in Bianchi et al. [30]. Particulars: I = 0.1 M KNO3, T = 25 °C; ref Bianchi et al. [30]; cited from earlier work.
Setting [9] is: UV-vis spectrophotometric titrations, T = 25 °C, I = 0.15 M NaNO3.
The mark [10] stands for this setting: I = 0.15 M NaNO3, read-out: pKa, H2L^2+ ⇌ H^+ + HL^+.

`CSCCN1CCN(CCSC)CCN(CCSC)CCN(CCSC)CC1` [DO4S, 1,4,7,10-tetrakis-[2-(methylsulfanyl)ethyl]-1,4,7,10-tetraazacyclododecane]: the “Percentage of intact [64Cu]Cu2+ complex in human serum” value in series [1] is 20%.

For the molecule `CSCCN1CCN(CCSC)CCN(CCSC)CC1` [NO3S], the pKa (in general, the pH at which an ionisable group is half protonated) in series [2] (1:1 water/methanol, pH potentiometry in 1:1 water/methanol, read-out: pKa, H2L^2+ ⇌ H^+ + HL^+) was 2.33 ± 0.04; in series [2] (1:1 water/methanol, pH potentiometry in 1:1 water/methanol, read-out: pKa, HL^+ ⇌ H^+ + L) it was 11.52 ± 0.01; in series [7] (setting [10]), 2.7 ± 0.02; in series [7] (I = 0.15 M NaNO3, read-out: pKa, HL^+ ⇌ H^+ + L), 12.72 ± 0.08. Also, the “Solubility in water of the completely deprotonated neutral form (L)” value in series [3] is on record as “sparingly soluble”. In addition, in series [4] (setting [9]), the “logβ, Cu^2+ + L + H2O ⇌ [CuL(OH)]^+ + H^+” value is listed as 9.08 ± 0.03. Further, the “logβ, Cu^2+ + L ⇌ [CuL]^2+” value in series [4] (setting [9]) is 18.41 ± 0.05. For the same molecule, in series [4], the “pCu^2+ (−log[Cu^2+]free)” value is given as 14.3. For the same molecule, in series [4] (physiological pH), the “Increase in Cu2+ complex stability (pCu^2+) with respect to TACN-n-Bu” value is reported as 6 orders of magnitude. Moreover, the “Time to reach Cu2+ complexation equilibrium” value in series [5] (pH = 1.0, equimolar metal-to-ligand 10^-4 M) is about 14 h; in series [5] (pH = 4.0, equimolar metal-to-ligand 10^-4 M) it was about 0.167 h; in series [5] (pH = 7.1 (neutral), equimolar metal-to-ligand 10^-4 M) it was under 0.017 h. The “pCu^+” value in series [6] (calculated at CL = 10^-5 M, CCu+ = 10^-6 M, pH = 7.4) is recorded as 14.0. Also, in series [6] (obtained from voltametric data, T = 25 °C, I = 0.15 M NaNO3), the “logβ, Cu^+ + L ⇌ [CuL]^+” value was found to be 18.36 ± 0.05.

With `O=C(O)CN1CCN(CC(=O)O)CCN(CC(=O)O)CC1` [NOTA, 1,4,7-triazacyclononane-1,4,7-triacetic acid, reference compound], the “pCu^2+ (−log[Cu^2+]free)” value in series [4] is given as 18.2.

For the molecule `C1CNCCNCCN1` [TACN, 1,4,7-triazacyclononane], in series [8], the “pKa, H2L^2+ ⇌ H^+ + HL^+” value is listed as 6.86; the “pKa, H3L^3+ ⇌ H^+ + H2L^2+” value was 2.1; the “pKa, HL^+ ⇌ H^+ + L” value was 10.68.

Turning to `CN1CCN(C)CCN(C)CC1` [TACN-Me, 1,4,7-trimethyl-1,4,7-triazacyclonane], in series [8], the “pKa, H2L^2+ ⇌ H^+ + HL^+” value was 5.1; the “pKa, H3L^3+ ⇌ H^+ + H2L^2+” value was “–0.4”; the “pKa, HL^+ ⇌ H^+ + L” value is 11.7.

Consider `CCCCN1CCN(CCCC)CCN(CCCC)CC1` [TACN-n-Bu, 1,4,7-tris-n-butyl-1,4,7-triazacyclononane], for which, in series [2] (water, pH potentiometry, read-out: pKa, H2L^2+ ⇌ H^+ + HL^+), the pKa is 5 ± 0.05. Moreover, in series [4] (setting [9]), the “logβ, Cu^2+ + HL^+ ⇌ [CuHL]^3+” value is reported as 6.2 ± 0.1 and the “logβ, Cu^2+ + HL^+ ⇌ [CuL]^2+ + H^+” value is “–0.04 ± 0.15”. For the same molecule, the “Time to reach Cu2+ complexation equilibrium” value in series [5] (neutral pH, equimolar metal-to-ligand 10^-4 M) amounted to 8 h. In addition, in series [7] (setting [10]), the pKa was determined as 5.04 ± 0.05.
